The values below come from patent US10653672B2, “Myogenesis promotor, muscle atrophy inhibitor, medical composition and TAZ activator” (National University Corporation Tokyo Medical and Dental …, priority 2014, dated 2020).

Series [1] concerns A431 cells. Nature of the series: Proliferation of A431 cells in 3D matrigel. In kind it is cell-based. The following applies: A431 cells in 2% BD Matrigel; 10 μM; 10 days; maximum diameter of 30 cell aggregates. Here is the method:
(2) Each well of a 96-well plate was pre-coated with 30 μL BD Matrigel (trade name, Becton, Dickinson and Company). A431 cells were suspended in the 2% BD Matrigel at a concentration of 2.1×10^6 cells/mL. This cell solution (140 μL) was added with 0.17 μL of 10 mM IBS008739 stock solution in DMSO or 0.17 μL of DMSO, and used to layer the pre-coated wells, and proliferation in the 3D matrigel was observed (see FIG. 12B). 300 of A431 cells were placed in each well of Ultra Low Attachment 96-well plate, and cultured in a serum-free DMEM-F-12 medium containing 10 ng/mL FGF, 5 μg/mL insulin and 0.1% (w/v) BSA. Formation of tumor spheres was observed under the condition with 10 mM IBS008739 stock solution dissolved in DMSO so that the final concentration was 10 μM, or the condition with DMSO of the same volume (see FIG. 12C). The maximum diameter of 30 cell aggregates of 150 μm or more observed in the 3D matrigel or sphere formation condition) are measured as the size of 3D colony or sphere. The results are shown in Table 10 and FIGS. 12B and 12C. The line in the figure is 200 μm. The line and the error bar indicate the average value and the standard error, and ns refers to not significant.
Observation of the spheres and the 3D matrigel cultivation were performed by the following processes. […]

For series [2], the system named is binding of Pax3 to Myf5 promoter. Nature of the series: Chromatin immunoprecipitation, Pax3 on Myf5 promoter. The settings on record: C2C12 cells; 10 μM; differentiation condition 24 hours; protein G sepharose without antibody; listed as IBS008738. In kind it is cell-based, mouse. Here is the method: (1) Chromatin immunoprecipitation of MyoD, TEAD and Pax3 was performed on C2C12 cells that were cultured under differentiation condition for 24 hours in a culture medium added with IBS008738 or DMSO at a concentration of 10 μM. Myogenin, connective tissue growth factor (CTGF) and MyfS were detected by PCR, respectively. The immunoprecipitation with protein G sepharose was used as a control (Mock ChIP). […] The line and the error bar in the figure indicate the average value and the standard error, *p<0.05, ***p<0.001, ns refers to not significant.
The Chromatin immunoprecipitation was performed according to the following process. C2C12 cells were cultured to confluence, and then treated with IBS008738 or DMSO at a concentration of 10 μM in a differentiation medium for 24 hours. The cells were crosslinked in 1.42% (v/v) formaldehyde for 15 minutes, and the reaction was quenched by treating with 125 mM glycine for 5 minutes. […] Shearing was analyzed by agarose gel electrophoresis. […] The immunoprecipitated DNA fragments were isolated using Chelex-100 resin and diluted by 1:2.5 for quantitative PCR analysis. Input normalized relative abundance was determined.

Series [3] relates to A549 cells. The series is described as follows: Immunoblotting of EMT markers in A549 cells. In kind it is cell-based, human. Here is the method: (1) A431 cells, (epidermoid carcinoma), A549 cells (adenocarcinomic human alveolar basal epithelial cell) and HCT116 cells (human colon cancer) were treated with IBS008738 or DMSO, respectively, and evaluated by immunoblotting.
HEK293, A431, A549, HCT116, MCF7 and SW480 cells were cultured in Dulbecco's Modified Eagle Medium (DMEM) containing 10% fetal bovine serum (FBS), 10 mM HEPES-NaOH at pH 7.4, 100 U/ml penicillin and 100 mg/I streptomycin under 5% CO2 at 37° C.

Series [4] deals with M-cadherin. Nature of the series: Quantitative real-time PCR, M-cadherin. In kind it is cell-based, mouse. The following applies: C2C12 cells, 10 μM; for Normarized mRNA abundance, M-cadherin: listed as IBS008738. Here is the method:
(1) Quantitative real-time PCR was performed with C2C12 cells immediately before the induction of muscle formation (0 h), and after culturing under differentiation condition in a culture medium added with IBS008738 or DMSO at a concentration of 10 μM for 24 hours (24 h) and 72 hours (72 h), respectively. […] The line and error bar indicate the average value and the standard error, **p<0.05, and ns refers to not significant.
Evaluation was also performed under the same condition on M-cadherin, calpain 1 and caveolin 3, which are myofusion markers. As a result, there was no increase in the degree of gene transcription in the case with IBS008738.
The quantitative real-time PCR was performed with SYBER Green (Roche) and ABI7500 Realtime PCR system (Applied Biosystems).

Molecules are shown by their SMILES. Several values for one entry are separate records, joined by “and”; a condition that tells them apart may be missing. Identical values can stand only once.

Consider `Cc1ccc(-n2cnc(/N=C/N3CCOCC3)c2C(=O)c2ccccc2)cc1` [exemplary compound 1], for which, in series [1], the “3D colony size, average size (μm)” value came out at 272.30 μm. Moreover, in series [2], the “Input %, Myf5-p, Mock ChIP” value is 0.14% and 0.13% and 0.16%. Further, the “EMT markers (fibronectin, E-cadherin, N-cadherin and vimentin) compared with DMSO” value in series [3] is reported as “no significant difference”. The “degree of gene transcription of M-cadherin” value in series [4] (24 h and 72 h) is “no increase”. In addition, the “Normarized mRNA abundance, M-cadherin” value in series [4] (differentiation condition 24 h) is 1.66 and 1.61 and 1.64; in series [4] (differentiation condition 72 h), 0.82 and 0.87 and 0.80.
